Measured values from patent publication US12583851B2, “Heteroaryl-substituted pyrazine derivatives as pesticides” (Elanco Animal Health GmbH, priority 2019, dated 2026).

What was measured:
Format in all cases: in vivo
[1] = tested on: fall armyworm larvae (Spodoptera frugiperda); assay: Spodoptera frugiperda spray test; conditions: 168 h, maize leaf sections, after 7 days
Experimental: Spodoptera fruaiperda—Spray Test
Solvent: 78.0 parts by weight acetone • 1.5 parts by weight dimethylformamide
(§1) Emulsifier: alkylarylpolyglycol ether
(§2) To produce a suitable preparation of active compound, 1 part by weight of active compound is mixed with the stated amount of solvents and is diluted with water, containing an emulsifier concentration of 1000 ppm, to the desired concentration. Further test concentrations are prepared by dilution with emulsifier containing water.
Maize (Zea mays) leaf sections are sprayed with a preparation of the active ingredient of the desired concentration. Once dry, the leaf sections are infested with fall armyworm larvae (Spodoptera frugiperda).
After 7 days mortality in % is determined. 100% means all caterpillars have been killed and 0% means none of the caterpillars have been killed.

[2] = tested on: larvae of the banded cucumber beetle (Diabrotica balteata); assay: Diabrotica balteata spray test; conditions: 168 h, after 7 days, read-out: efficacy (seedling growth); for pest or weed control at 32 µg/disc, 100 g/ha: 100 g/ha (=32 μg/well); for pest or weed control at 6.4 µg/disc, 20 g/ha: 20 g/ha (=6.4 μg/well)
Experimental: Diabrotica balteata—Spray Test
Solvent: 78.0 parts by weight of acetone • • 1.5 parts by weight of dimethylformamide
as §1
as §2, with “solvent,” for “solvents”, “and the concentrate” for “and”
Soaked wheat seeds (Triticum aestivum) are placed in a multiple well plate filled with agar and some water and are incubated for 1 day to germinate (5 seeds per well). The germinated wheat seeds are sprayed with a test solution containing the desired concentration of the active ingredient. Afterwards each unit is infected with 10-20 larvae of the banded cucumber beetle (Diabrotica balteata).
After 7 days efficacy in % is determined. 100% means all the seedlings have grown up like in the untreated, uninfected control; 0% means none of the seedlings have grown.

[3] = tested on: Rhipicephalus (Boophilus) microplus larvae (strain Parkhurst, resistant against synthetic pyrethroids); assay: Rhipicephalus (Boophilus) microplus in-vitro contact test, larval cattle tick; conditions: after 48 hours, read-out: efficacy (larvae dead or moribund); for pest or weed control at 1 µg/cm2, 100 g/ha: 1 μg/cm^2 (=100 g/ha); for pest or weed control at 5 µg/cm2, 500 g/ha: 5 μg/cm^2 (=500 g/ha)
Experimental: Rhipicephalus (Boophilus) microplus—In-Vitro Contact Tests Larval Cattle Tick (Strain Parkhurst, Resistant Against Synthetic Pyrethroids)
9 mg compound is solved in 1 mL acetone and diluted with acetone to the desired concentration. […] the test solution is filled in 25 mL glass test tubes and homogeneously distributed on the inner walls by rotation and tilting on a shaking device (2 h at 30 rpm). With a compound concentration of 900 ppm, an inner surface of 44.7 cm^2 and a homogeneous distribution, a dose of 5 μg/cm^2 is achieved.
After the solvent has evaporated, each test tube is filled with 20-50 cattle tick larvae (Rhipicephalus microplus), closed with a perforated lid and incubated in a horizontal position at 85% relative humidity and 27° C. in an incubator. After 48 hours efficacy is determined. The larvae are patted on the ground of the tubes and negative geotactic behaviour is recorded.
An efficacy of 100% means all larvae are dead or moribund; 0% means no larvae are dead or moribund.

SMILES	mortality at 100 g/ha [1] [%]	pest or weed control at 32 µg/disc, 100 g/ha [2] [%]	pest or weed control at 6.4 µg/disc, 20 g/ha [2] [%]	pest or weed control at 1 µg/cm2, 100 g/ha [3] [%]	pest or weed control at 5 µg/cm2, 500 g/ha [3] [%]
CCN(C)C(=O)c1ccc(-c2nccnc2C(C)NC(=O)c2cc(Cl)cc(OC(F)(F)F)c2)nc1 (racemic) [Example I-36, (rac)-6-(3-{1-[3-Chloro-5-(trifluoromethoxy)benzamido]ethyl}pyrazin-2-yl)-N-ethyl-N-methylpyridine-3-carboxamide]	100	100			
CC(NC(=O)c1cc(C(F)(F)F)cc(C(F)(F)F)c1)c1nccnc1-c1ccc(C(=O)N(C)CC#N)cn1 (racemic) [Example I-39, (rac)-6-(3-{1-[3,5-Bis(trifluoromethyl)benzamido]ethyl}pyrazin-2-yl)-N-(cyanomethyl)-N-methylpyridine-3-carboxamide]	100	100			
CC(NC(=O)c1cc(C#N)cc(C(F)(F)F)c1)c1nccnc1-c1ccc(C(F)(F)F)cn1 (racemic) [Example I-41, (rac)-3-Cyano-5-(trifluoromethyl)-N-[1-{3-[5-(trifluoromethyl)pyridin-2-yl]pyrazin-2-yl}ethyl]benzamide]	83		100		
CC(NC(=O)c1cc(C(F)(F)F)cc(C(F)(F)F)c1)c1nccnc1-c1ncc(C(=O)N2CCOCC2)s1 (racemic) [Example I-58, (rac)-N-[1-{3-[5-(Morpholine-4-carbonyl)-1,3-thiazol-2-yl]pyrazin-2-yl}ethyl]-3,5-bis(trifluoromethyl)benzamide]	100			100	90
CC(NC(=O)c1cc(C(F)(F)F)cc(C(F)(F)F)c1)c1nccnc1-c1ncc(C(=O)N(C)CC#N)s1 (racemic) [Example I-67, (rac)-2-(3-{1-[3,5-Bis(trifluoromethyl)benzamido]ethyl}pyrazin-2-yl)-N-(cyanomethyl)-N-methyl-1,3-thiazole-5-carboxamide]	100	100			
CC(NC(=O)c1cc(Cl)cc(S(C)(=O)=O)c1)c1nccnc1-c1ncc(C(=O)N(C)CC#N)s1 (racemic) [Example I-77, (rac)-2-(3-{1-[3-Chloro-5-(methanesulfonyl)benzamido]ethyl}pyrazin-2-yl)-N-(cyanomethyl)-N-methyl-1,3-thiazole-5-carboxamide]	100	100			
CC(NC(=O)c1cc(Br)cc(C#N)c1)c1nccnc1-n1cc(Cl)cn1 (racemic) [Example I-98, (rac)-3-Bromo-N-{1-[3-(4-chloro-1H-pyrazol-1-yl)pyrazin-2-yl]ethyl}-5-cyanobenzamide]	100	100	100		
CC(NC(=O)c1cc(Cl)cc(C(F)(F)F)c1)c1nccnc1-n1cc(C#N)cn1 (racemic) [Example I-105, (rac)-3-Chloro-N-{1-[3-(4-cyano-1H-pyrazol-1-yl)pyrazin-2-yl]ethyl}-5-(trifluoromethyl)benzamide]	100	100			
CC(NC(=O)c1cc(Br)cc(Br)c1)c1nccnc1-n1cc(C#N)cn1 (racemic) [Example I-106, (rac)-3,5-Dibromo-N-{1-[3-(4-cyano-1H-pyrazol-1-yl)pyrazin-2-yl]ethyl}benzamide]	100	100	100		
CCS(=O)(=O)c1cc(Cl)cc(C(=O)NC(C)c2nccnc2-n2cc(C#N)cn2)c1 (racemic) [Example I-122, (rac)-3-Chloro-N-{1-[3-(4-cyano-1-pyrazol-1-yl)pyrazin-2-yl]ethyl}-5-(ethanesulfonyl)benzamide]	100			90	
Cc1cnc(C(C)NC(=O)c2cc(C(F)(F)F)cc(C(F)(F)F)c2)c(-c2ncc(C(=O)N(C)CC3CC3)s2)n1 (racemic) [Example I-125, (rac)-2-(3-{1-[3,5-Bis(trifluoromethyl)benzamido]ethyl}-6-methylpyrazin-2-yl)-N-(cyclopropylmethyl)-N-methyl-1,3-thiazole-5-carboxamide]	100			100	100
CC(NC(=O)c1cc(Cl)cc(S(=O)(=O)c2ccc(F)cc2)c1)c1nccnc1-n1cc(C#N)cn1 (racemic) [Example I-128, (rac)-3-Chloro-N-{1-[3-(4-cyano-1H-pyrazol-1-yl)pyrazin-2-yl]ethyl}-5-(4-fluorobenzene-1-sulfonyl)benzamide]	100			90	80
CC(NC(=O)c1cc(C(F)(F)F)cc(C(F)(F)F)c1)c1nccnc1-n1cc(C(=O)N(C)C(C)C)cn1 (racemic) [Example I-136, (rac)-1-(3-{1-[3,5-Bis(trifluoromethyl)benzamido]ethyl}pyrazin-2-yl)-N-methyl-N-(propan-2-yl)-1H-pyrazole-4-carboxamide]	100			100	100
CC(NC(=O)c1cc(Br)cc(OC(F)(F)F)c1)c1nccnc1-n1cc(C(=O)N(C)C(C)C)cn1 (racemic) [Example I-137, (rac)-1-(3-{1-[3-Bromo-5-(trifluoromethoxy)benzamido]ethyl}pyrazin-2-yl)-N-methyl-N-(propan-2-yl)-1H-pyrazole-4-carboxamide]	100			100	100
CC(NC(=O)c1cc(OC(F)F)cc(C2CC2)c1)c1nccnc1-c1ncc(C(=O)N(C)CC#N)s1 (racemic) [Example I-142, (rac)-N-(Cyanomethyl)-2-(3-{1-[3-cyclopropyl-5-(difluoromethoxy)benzamido]ethyl}pyrazin-2-yl)-N-methyl-1,3-thiazole-5-carboxamide]	100	100			
CCN(C)C(=O)c1cnc(-c2ncc(C)nc2C(C)NC(=O)c2cc(C(F)(F)F)cc(C(F)(F)F)c2)s1 (racemic) [Example I-148, (rac)-2-(3-{1-[3,5-Bis(trifluoromethyl)benzamido]ethyl}-5-methylpyrazin-2-yl)-N-ethyl-N-methyl-1,3-thiazole-5-carboxamide]	100				
CCN(C)C(=O)c1cnc(-c2ncc(C)nc2C(C)NC(=O)c2cc(C(F)(F)F)nc(C(F)(F)F)c2)s1 (racemic) [Example I-151, (rac)-N-[1-(3-{5-[Ethyl(methyl)carbamoyl]-1,3-thiazol-2-yl)-6-methylpyrazin-2-yl)ethyl]-2,6-bis(trifluoromethyl)pyridine-4-carboxamide]	100				
CCN(C)C(=O)c1cnc(-c2nc(C)cnc2C(C)NC(=O)c2cc(C(F)(F)F)cc(C(F)(F)F)c2)s1 (racemic) [Example I-152, (rac)-2-(3-{1-[3,5-Bis(trifluoromethyl)benzamido]ethyl}-6-methylpyrazin-2-yl)-N-ethyl-N-methyl-1,3-thiazole-5-carboxamide]	100	100	100		
CCN(C)C(=O)c1cnc(-c2nc(C)cnc2C(C)NC(=O)c2cc(C(F)(F)F)cc(C(F)(F)F)c2)s1 (stereo in doubt) [Example I-157, (+)-2-(3-{(1S)-1-[3,5-bis(trifluoromethyl)benzamido]ethyl}-6-methylpyrazin-2-yl)-N-ethyl-N-methyl-1,3-thiazole-5-carboxamide]	100				
CC(NC(=O)c1cc(Br)cc(OC(F)(F)F)c1)c1nccnc1-c1ccc(Cl)cn1 (centres unmarked) [Example I-22]	100	100	100		
CCN(C)C(=O)c1cnc(-c2ncc(C)nc2[C@H](C)NC(=O)c2cc(C(F)(F)F)nc(C(F)(F)F)c2)s1 [Example I-159, (+)-N-[(1S)-1-(3-(5-[ethyl(methyl)carbamoyl]-1,3-thiazol-2-yl)-6-methylpyrazin-2-yl)ethyl]-2,6-bis(trifluoromethyl)pyridine-4-carboxamide]	100				
